The subject of the assay is 845751-090-R-J2-PDC tumor spheroid viability. Put plainly: Anticancer human tumor 845751-090-R-J2-PDC patient-derived head and neck squamous carcinoma cell line growth inhibition [IpAb]. The conditions noted are these: spheroids with HUVEC and MSC; for viability, T/C: stronger effect = lower value. In a few lines:
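Multi-cell spheroids of 60% tumour cells, 25% HUVEC and 15% MSC in ultra-low-attachment U-bottom wells, treated with agents combined with ipatasertib or abemaciclib. Half-log ranges top out near clinical Cmax, or 10 microM when Cmax is unknown.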

Setting [1] is: curve of first compound, second compound 0.01 µM.
The mark [2] stands for this setting: curve of first compound, second compound 0.0316 µM.
[3] abbreviates: curve of first compound, second compound 0.1 µM.
Where [4] appears, read: curve of first compound, second compound 0.316 µM.
Setting [5] is: curve of first compound, second compound 1 µM.
Where [6] appears, read: second compound 0.01 µM, first compound 0.0316 µM.
Setting [7] is: second compound 0.01 µM, first compound 0.1 µM.
The mark [8] stands for this setting: second compound 0.0316 µM, first compound 0.0316 µM.
The mark [9] stands for this setting: second compound 0.0316 µM, first compound 0.1 µM.
Where [10] appears, read: second compound 0.1 µM, first compound 0.0316 µM.
The mark [11] stands for this setting: second compound 0.1 µM, first compound 0.1 µM.
Setting [12] is: second compound 0.316 µM, first compound 0.0316 µM.
Where [13] appears, read: second compound 0.316 µM, first compound 0.1 µM.
Where [14] appears, read: second compound 1 µM, first compound 0.0316 µM.
The mark [15] stands for this setting: second compound 1 µM, first compound 0.1 µM.

As a reminder, the IC50 is the concentration at which inhibition is half-maximal. One may read the viability, T/C as the ratio of treated to control.

Structures are written as SMILES. Values joined by “and” are separate entries in the source; they are usually repeats but may differ in a detail not shown here. Equal values may be shown once.
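Further: spheroids exposed to compounds for 7 days before readout.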
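Wherever viability, T/C is given: CTG3D luminescence normalised so that 100% = DMSO vehicle control.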

Turning to `C=CC(=O)N1CCN(c2nc(=O)n(-c3c(C)ccnc3C(C)C)c3nc(-c4c(O)cccc4F)c(F)cc23)C(C)C1` (stereo unspecified) + CCN1CCN(Cc2ccc(Nc3ncc(F)c(-c4cc(F)c5nc(C)n(C(C)C)c5c4)n3)nc2)CC1, the IC50 runs as follows: under setting [1], 5850 nM; under setting [2], 2250 nM; under setting [3], 1690 nM; under setting [4], 1870 nM; under setting [5], 2250 nM. The viability, T/C is 95.2% under setting [6]; 96.3% under setting [7]; 102% (second compound 0.01 µM, first compound 0.316 µM); 82.3% (second compound 0.01 µM, first compound 1 µM); 53.7% (second compound 0.01 µM, first compound 3.16 µM); 46.9% (second compound 0.01 µM, first compound 10 µM). Moreover, the viability, T/C was 64% under setting [8]; 84.3% under setting [9]; 70.9% (second compound 0.0316 µM, first compound 0.316 µM); 66% (second compound 0.0316 µM, first compound 1 µM); 43.3% (second compound 0.0316 µM, first compound 3.16 µM); 31.7% (second compound 0.0316 µM, first compound 10 µM). For the same molecule, the viability, T/C under setting [10] is 67.2%; the viability, T/C under setting [11] is 115%; the viability, T/C (second compound 0.1 µM, first compound 0.316 µM) was 74.6%; the viability, T/C (second compound 0.1 µM, first compound 1 µM) is 56.1%; the viability, T/C (second compound 0.1 µM, first compound 3.16 µM) was 46%; the viability, T/C (second compound 0.1 µM, first compound 10 µM) was 27.2%. The viability, T/C under setting [12] is 61.5%; the viability, T/C under setting [13] was 67.9%; the viability, T/C (second compound 0.316 µM, first compound 0.316 µM) is 72.5%; the viability, T/C (second compound 0.316 µM, first compound 1 µM) is 55.7%; the viability, T/C (second compound 0.316 µM, first compound 3.16 µM) is 43%; the viability, T/C (second compound 0.316 µM, first compound 10 µM) was 16.9%. In addition, the viability, T/C reads like this: under setting [14], 62.6%; under setting [15], 62.4%; (second compound 1 µM, first compound 0.316 µM) 72.2%; (second compound 1 µM, first compound 1 µM) 59.9%; (second compound 1 µM, first compound 3.16 µM) 45.4%; (second compound 1 µM, first compound 10 µM) 28.4%.
For the molecule `CC(=O)c1c(C)c2cnc(Nc3ccc(N4CCNCC4)cn3)nc2n(C2CCCC2)c1=O`, the viability, T/C is 86.5% and 84.4% (compound 0.000949 µM); 81.2% and 104% (compound 0.003 µM); 109% and 90.3% (compound 0.00949 µM); 133% and 91.8% (compound 0.03 µM); 112% and 101% (compound 0.0949 µM); 165% and 106% (compound 0.3 µM). The IC50 (curve of compound) was greater than 300 nM.
`Cc1nc(NC(=O)N2CCCC2C(N)=O)sc1-c1ccnc(C(C)(C)C(F)(F)F)c1` (stereo unspecified): the viability, T/C is, setting by setting: (compound 0.0316 µM) 79.1% and 55.6%; (compound 0.1 µM) 54.8% and 65.7%; (compound 0.316 µM) 36.8% and 46.5%; (compound 1 µM) 25.4% and 25%; (compound 3.16 µM) 17.9% and 18.6%; (compound 10 µM) 10.7% and 14.8%. Besides, for the setting “curve of compound”, the half-maximal inhibitory concentration (IC50) was 138 nM and 262 nM.
As to `Cn1ncnc1[C@H]1c2n[nH]c(=O)c3cc(F)cc(c23)N[C@@H]1c1ccc(F)cc1` + CCN1CCN(Cc2ccc(Nc3ncc(F)c(-c4cc(F)c5nc(C)n(C(C)C)c5c4)n3)nc2)CC1, the half-maximal inhibitory concentration (IC50) is, setting by setting: under setting [1], greater than 100 nM; under setting [2], 73.1 nM; under setting [3], greater than 100 nM; under setting [4], 85.4 nM; under setting [5], 19.6 nM. In addition, the viability, T/C is 71.6% (second compound 0.01 µM, first compound 0.000316 µM); 94% (second compound 0.01 µM, first compound 0.001 µM); 91.8% (second compound 0.01 µM, first compound 0.00316 µM); 83.1% (second compound 0.01 µM, first compound 0.01 µM); 92.1% under setting [6]; 70.9% under setting [7]. The viability, T/C is 74.7% (second compound 0.0316 µM, first compound 0.000316 µM); 81.8% (second compound 0.0316 µM, first compound 0.001 µM); 69.7% (second compound 0.0316 µM, first compound 0.00316 µM); 78.8% (second compound 0.0316 µM, first compound 0.01 µM); 63.5% under setting [8]; 45% under setting [9]. Besides, the viability, T/C by setting is: (second compound 0.1 µM, first compound 0.000316 µM) 71.9%; (second compound 0.1 µM, first compound 0.001 µM) 66.3%; (second compound 0.1 µM, first compound 0.00316 µM) 71.3%; (second compound 0.1 µM, first compound 0.01 µM) 69.7%; under setting [10], 75.7%; under setting [11], 59.9%. The viability, T/C by setting is: (second compound 0.316 µM, first compound 0.000316 µM) 63.6%; (second compound 0.316 µM, first compound 0.001 µM) 69.4%; (second compound 0.316 µM, first compound 0.00316 µM) 72.8%; (second compound 0.316 µM, first compound 0.01 µM) 55%; under setting [12], 57.8%; under setting [13], 49.3%. Moreover, the viability, T/C reads like this: (second compound 1 µM, first compound 0.000316 µM) 58.8%; (second compound 1 µM, first compound 0.001 µM) 84.5%; (second compound 1 µM, first compound 0.00316 µM) 57.7%; (second compound 1 µM, first compound 0.01 µM) 57.1%; under setting [14], 46.4%; under setting [15], 37.1%.
Turning to `CC(C)n1nc(-c2ccc3oc(N)nc3c2)c2c(N)ncnc21`, the viability, T/C is, setting by setting: (compound 0.000316 µM) 108% and 77.2%; (compound 0.001 µM) 81.4% and 72.8%; (compound 0.00316 µM) 58.9% and 50.4%; (compound 0.01 µM) 57.2% and 53.4%; (compound 0.0316 µM) 49.8% and 32.9%; (compound 0.1 µM) 26% and 20.3%. Where the note is “curve of compound”, the concentration for half-maximal inhibition (IC50) is 16.2 nM and 7.32 nM.

The record behind these values is PubChem BioAssay AID2060333 (Molecular Pharmacology Branch, DTP, NCI, 2025).
